Assay results published in patent publication US7410974B2, “Halogenated Quinazolinyl nitrofurans as antibacterial agents” (Ulysses Pharmaceutical Products, Inc., priority 2003, dated 2008).
In brackets after ≈: the same amount, converted by molar mass. Where two headings read alike, the source gives them in different places.

Experiments:
[1] = test system: E. coli ATCC 25922; assay: MIC broth microdilution (NCCLS); assay type: cell-based, Escherichia coli
[2] = test system: E. coli ATCC 25922; assay: Time-kill curves; assay type: cell-based, Escherichia coli
Method: (§1) Time-kill curves. The bactericidal action of compounds was also evaluated over time (time-kill curve experiments). A bacterial inoculum of 1×10^5-1×10^7 Colony Forming Units (CFU)/ml was prepared. The inocula were verified and precisely determined by applying 10-μl drops of 10-fold dilutions onto Triptic Soy Agar plates. The CFU were counted after an incubation of 24 h at 35° C. Any experiment showing an inoculum that was more or less than the desired range of CFU/ml was rejected. Time-kill curve experiments were performed in 30 ml of MHB placed in 50-ml shaking flasks over a period of 24 hours. Test compounds and control antibiotics were added at time 0 hour and, at each time point, a sample was removed from flasks and the CFU determined by plate counts as described above. CFU from compound-treated cultures were compared to CFU collected from the control flask without antibiotic. Test compounds and control antibiotics were assayed at the MIC or a multiple of the MIC as determined by a broth microdilution technique as described above.

[3] = test system: H. influenzae ATCC 49766; assay: MIC broth microdilution (NCCLS), fastidious bacteria; assay type: cell-based; conditions: Haemophilus influenzae, ATCC49766, HTM, 5% CO2
Outline: (§2)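 NCCLS broth microdilution; inoculum 10^5-10^6 CFU/ml; 2-fold serial dilutions; 35° C, 24 h; A650 plus visual read. Media: MHBCA (S. saprophyticus, E. faecium), MHBCA + 2% laked horse blood (Listeria), HTM (Haemophilus), the last two under 5% CO2.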

[4] = test system: H. influenzae ATCC 49247; assay: as above; assay type: cell-based; conditions: Haemophilus influenzae, ATCC49247, HTM, 5% CO2
Outline: as §2

[5] = test system: L. monocytogenes ATCC 13932; assay: as above; assay type: cell-based; conditions: Listeria monocytogenes, ATCC13932, MHBCA with 2% laked horse blood, 5% CO2
Outline: as §2

[6] = test system: C. jejuni ATCC 33291; assay: as above; assay type: cell-based; conditions: Campylobacter jejuni, ATCC33291; C. jejuni ATCC 33291; MHBCA with 2% laked horse blood, 5% CO2; read-out: MIC
Outline: as §2

[7] = test system: B. catarrhalis ATCC 8176; assay: as above; assay type: cell-based, Branhamella (Moraxella) catarrhalis; conditions: Moraxella catarrhalis, ATCC8176, HTM, 5% CO2
Outline: as §2

[8] = test system: MRSA strain Sa249c; assay: MIC broth microdilution, antibiotic resistant strain panel; assay type: cell-based, Staphylococcus aureus; conditions: Staphylococcus aureus; multi-resistant MRSA strain Sa249c; read-out: MIC
Outline: (§3)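 Broth microdilution per NCCLS in cation-adjusted Mueller Hinton broth, inoculum 10^5-10^6 CFU/ml, serial 2-fold dilutions, 24 h at 35 °C. MIC is lowest concentration with no visible growth, read at 650 nm and visually.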

[9] = test system: MRSA strain Sa253c; assay: as above; assay type: cell-based, Staphylococcus aureus; conditions: Staphylococcus aureus; multi-resistant MRSA strain Sa253c; read-out: MIC
Outline: as §3

[10] = test system: MRSA strain Sa228c; assay: as above; assay type: cell-based, Staphylococcus aureus; conditions: Staphylococcus aureus; multi-resistant MRSA strain Sa228c; read-out: MIC
Outline: as §3

[11] = test system: MRSA strain Sa212c; assay: as above; assay type: cell-based, Staphylococcus aureus; conditions: Staphylococcus aureus; multi-resistant MRSA strain Sa212c; read-out: MIC
Outline: as §3

[12] = test system: MRSA strain Sa220c; assay: as above; assay type: cell-based, Staphylococcus aureus; conditions: Staphylococcus aureus; multi-resistant MRSA strain Sa220c; read-out: MIC
Outline: as §3

[13] = test system: MRSA strain Sa211c; assay: as above; assay type: cell-based, Staphylococcus aureus; conditions: Staphylococcus aureus; multi-resistant MRSA strain Sa211c; read-out: MIC
Outline: as §3

[14] = test system: MRSA strain Sa234c; assay: as above; assay type: cell-based, Staphylococcus aureus; conditions: Staphylococcus aureus; multi-resistant MRSA strain Sa234c; read-out: MIC
Outline: as §3

[15] = test system: MRSA strain Sa224c; assay: as above; assay type: cell-based, Staphylococcus aureus; conditions: Staphylococcus aureus; multi-resistant MRSA strain Sa224c; read-out: MIC
Outline: as §3

[16] = test system: B. fragilis ATCC 25285; assay: MIC broth microdilution (NCCLS), anaerobic; assay type: cell-based; conditions: Bacteroides fragilis, ATCC25285; B. fragilis ATCC 25285; Wilkins Chalgren broth, anaerobic, 48 hours; read-out: MIC
Method: Minimal Inhibitory Concentration (MIC) Determination. Bacteria (primary strain panel, TABLE 1). Susceptibility tests were performed following the recommendations from the National Committee for Clinical Standards (NCCLS). The MICs were determined by a broth microdilution technique using a final volume of 100 μl of cation-adjusted Mueller Hinton Broth (MHBCA) and a bacterial inoculum of 10^5-10^6 Colony Forming Units (CFU)/ml. The inocula were verified and precisely determined by applying 10-μl drops of 10-fold dilutions onto Triptic Soy Agar plates. The CFU were counted after an incubation of 24 h at 35° C. Any experiment showing an inoculum that was more or less than 10^5-10^6 CFU/ml was rejected. Control antibiotics and test compounds were prepared at a concentration equivalent to 2-fold the highest desired final concentration. Compounds were then diluted directly in the 96-well microtiter plates by serial 2-fold dilutions using a multichannel pipette. Microtiter plates were incubated during 24 h at 35° C. and growth was recorded by using a microtiterplate reader at 650 nm as well as by visual observation. The MIC was defined as the lowest concentration of compound yielding no visible growth. […] Fastidious bacteria. The medium used for Listeria monocytogenes, Neisseria meningitidis, and Campylobacter jejuni was MHBCA containing 2% laked horse blood. The medium used for Haemophilus influenzae and Branhamella (Moraxella) catarrhalis was HTM as recommended by the NCCLS. Cultures of these fastidious bacteria were incubated at 35° C. in a 5% CO2 atmosphere. […] The medium used for Bacteroides fragilis was Wilkins Chalgren broth and growth was allowed under an anaerobic atmosphere at 35° C. for 48 hours.

[17] = test system: E. faecium VanA; assay: MIC broth microdilution, antibiotic resistant strain panel; assay type: cell-based; conditions: Enterococcus faecium; multi-resistant E. faecium VanA; read-out: MIC
Outline: as §3

[18] = test system: bacteria of the primary strain panel; assay: MBCs compared with MICs over the strain panels; assay type: cell-based; conditions: most of the time, over tested strains
Method: Minimal Inhibitory Concentration (MIC) Determination. Bacteria (primary strain panel, TABLE 1). Susceptibility tests were performed following the recommendations from the National Committee for Clinical Standards (NCCLS). The MICs were determined by a broth microdilution technique using a final volume of 100 μl of cation-adjusted Mueller Hinton Broth (MHBCA) and a bacterial inoculum of 10^5-10^6 Colony Forming Units (CFU)/ml. The inocula were verified and precisely determined by applying 10-μl drops of 10-fold dilutions onto Triptic Soy Agar plates. The CFU were counted after an incubation of 24 h at 35° C. Any experiment showing an inoculum that was more or less than 10^5-10^6 CFU/ml was rejected. Control antibiotics and test compounds were prepared at a concentration equivalent to 2-fold the highest desired final concentration. […] Microtiter plates were incubated during 24 h at 35° C. and growth was recorded by using a microtiterplate reader at 650 nm as well as by visual observation. […]
Minimal Bactericidal Concentration (MBC). After the microtiter plates were read for the determination of the MIC, a 10-μl sample of each clear well (at least 5 wells without visible growth) was applied onto TSA plates for viable counts determination.
Petri dishes were incubated at 35° C. for exactly 24 h and bacterial colonies were counted.

[19] = test system: S. aureus MRSA COL; assay: Time-kill curves; assay type: cell-based, Staphylococcus aureus; conditions: data not shown
Method: as §1

[20] = Escherichia coli, ATCC25922, E. coli ATCC 25922 (Reference), read-out: MIC

SMILES	MIC [1, 20]	MIC [8]	MIC [9]	MIC [10]	MIC [11]	MIC [12]	MIC [13]	MIC [14]	MIC [15]	further results
O=[N+]([O-])c1ccc(C=Cc2nc(Nc3ccc(O)cc3)c3cc(F)ccc3n2)o1 [Compound V, 6-fluoro-2-[2-(5-nitro-2-furyl)vinyl]-4-(p-hydroxyanilino)-quinazoline]	0.5 µg/mL (≈ 1.27 µM)	≤ 0.06 µg/mL	≤ 0.06 µg/mL	≤ 0.06 µg/mL	0.125 µg/mL (≈ 0.319 µM)	≤ 0.06 µg/mL	≤ 0.06 µg/mL	≤ 0.06 µg/mL	≤ 0.06 µg/mL	MIC ([1]; E. coli ATCC 25922 (Reference), listed as Example I compound V): 0.5 µg/mL (≈ 1.27 µM); time to strongly bactericidal action (time-kill) ([2]; E. coli ATCC 25922, at the MIC or a multiple of the MIC, FIG. 2): ≤ 2 h; bactericidal action compared with ciprofloxacin (time-kill) ([2]; E. coli, at their respective MIC or a multiple of the MIC): superior to ciprofloxacin; MIC [3]: 0.06 µg/mL (≈ 0.153 µM); MIC [4]: 0.03 µg/mL (≈ 0.0765 µM); MIC [5]: 0.03 to 0.25 µg/mL (≈ 0.0765 to 0.637 µM); MIC [6]: 0.016 µg/mL (≈ 0.0408 µM); MIC [7]: 0.008 µg/mL (≈ 0.0204 µM); MIC [16]: 0.016 µg/mL (≈ 0.0408 µM); MIC [17]: 0.03 µg/mL (≈ 0.0765 µM); MBCs relative to the MICs [18]: equal to or only 2 to 4-fold higher than the MICs; bactericidal action (time-kill) [19]: similarly bactericidal
O=C1CN(/N=C/c2ccc([N+](=O)[O-])o2)C(=O)N1 [Nitrofurantoin]	8 µg/mL (≈ 33.6 µM)	16 µg/mL (≈ 67.2 µM)	16 µg/mL (≈ 67.2 µM)	16 to 32 µg/mL (≈ 67.2 to 134 µM)	32 µg/mL (≈ 134 µM)	16 µg/mL (≈ 67.2 µM)	16 to 32 µg/mL (≈ 67.2 to 134 µM)	16 to 32 µg/mL (≈ 67.2 to 134 µM)	16 µg/mL (≈ 67.2 µM)	MIC ([1]; E. coli ATCC 25922 (Reference)): 8 to 16 µg/mL
